Laboratory results published in ChEMBL document CHEMBL1201862, “PubChem BioAssay data set” (2004).
“And” between values parts separate entries of the source, which are not always exact repeats. Identical values can stand only once.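 Protocol summary: plate cells (96-well), add compound at 5 concentrations, incubate 48 h, interpolate endpoints linearly. Abbreviation: GI50, concentration required for 50% inhibition of growth.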 The source made the active and inactive calls. No stated cut-off is given here; in the data, active = GI50 up to about 1.1 µM and inactive = higher.

Tests used:
Experiment in all cases: growth of human tumour cells (NCI), 48 h
TK-10 = system: TK-10
LOX IMVI = system: LOX IMVI
IGROV-1 = system: IGROV-1
OVCAR-8 = system: OVCAR-8
U-251 = system: U-251
SN12C = system: SN12C
SK-OV-3 = system: SK-OV-3
K562 = system: K562
Malme-3M = system: Malme-3M
HL-60 = system: HL-60
HCT-116 = system: HCT-116
RXF 393 = system: RXF 393
CAKI-1 = system: CAKI-1
A549 = system: A549
SNB-19 = system: SNB-19
HT-29 = system: HT-29
SK-MEL-28 = system: SK-MEL-28
NCI-H23 = system: NCI-H23
UACC-62 = system: UACC-62
SF-295 = system: SF-295

Measured: GI50

COc1nc(C#CCC(C)O)nc(OC)n1 (centres undefined)
inactive: TK-10 24.2 µM | LOX IMVI 14.2 µM | IGROV-1 15.7 µM | OVCAR-8 17.1 µM | U-251 29.6 µM | SN12C 19.5 µM | SK-OV-3 > 100 µM | K562 38.2 µM | Malme-3M 11.5 µM | HL-60 24.3 µM | HCT-116 14.9 µM | RXF 393 7.38 µM | CAKI-1 17.6 µM | A549 23.3 µM | SNB-19 > 100 µM | HT-29 31.3 µM | SK-MEL-28 31.6 µM | NCI-H23 19.9 µM | UACC-62 15.1 µM | SF-295 30.6 µM

Oc1ccc2ccccc2c1/N=N/c1ccccc1
inactive: TK-10 73.3 µM | LOX IMVI > 100 µM | IGROV-1 > 69.2 µM | OVCAR-8 56.1 µM | U-251 51.9 µM and > 56 µM | SN12C > 100 µM | SK-OV-3 53.3 µM | K562 > 100 µM and 91 µM | Malme-3M > 100 µM | HL-60 > 100 µM and 73.1 µM | HCT-116 > 100 µM | RXF 393 > 100 µM | CAKI-1 > 100 µM | A549 57.5 µM | SNB-19 > 100 µM and > 72.8 µM | HT-29 49.5 µM and > 64.7 µM | SK-MEL-28 > 100 µM | NCI-H23 > 100 µM | UACC-62 > 100 µM

Cc1cc(C)nc(NS(=O)(=O)c2ccc(NNC(=O)c3cccc4c(=O)c5ccccc5[nH]c34)cc2)n1
inactive: TK-10 > 100 µM | LOX IMVI 36 µM | IGROV-1 36.7 µM | OVCAR-8 83.4 µM | U-251 25.2 µM | SN12C 96.6 µM | SK-OV-3 55.5 µM | K562 41 µM | Malme-3M 49.9 µM | HL-60 41.2 µM | HCT-116 48.9 µM | RXF 393 36 µM | CAKI-1 > 100 µM | A549 > 100 µM | SNB-19 88.5 µM | HT-29 66.5 µM | SK-MEL-28 29.2 µM | NCI-H23 63 µM | UACC-62 71.6 µM | SF-295 80.5 µM

COCCCNc1nc(N)c(C#N)c(C#N)c1C#N
inactive: TK-10 > 10 µM | LOX IMVI > 10 µM | IGROV-1 > 10 µM | OVCAR-8 > 10 µM | U-251 > 10 µM | SN12C > 10 µM | SK-OV-3 > 10 µM | K562 2.72 µM | Malme-3M > 10 µM | HL-60 4.47 µM | HCT-116 > 10 µM | RXF 393 > 10 µM | CAKI-1 > 10 µM | A549 > 10 µM | SNB-19 > 10 µM | HT-29 > 10 µM | SK-MEL-28 > 10 µM | NCI-H23 > 10 µM | UACC-62 > 10 µM | SF-295 > 10 µM

O=C(O)CNC(=O)c1ccccc1O [SALICYLURIC ACID]
inactive: TK-10 > 100 µM | LOX IMVI > 100 µM | IGROV-1 > 100 µM | OVCAR-8 > 100 µM | U-251 > 100 µM | SN12C > 100 µM | SK-OV-3 > 100 µM | K562 > 100 µM | Malme-3M > 100 µM | HL-60 > 100 µM | HCT-116 > 100 µM | RXF 393 > 100 µM | CAKI-1 > 100 µM | A549 > 100 µM | SNB-19 > 100 µM | HT-29 > 100 µM | SK-MEL-28 > 100 µM | NCI-H23 > 100 µM | UACC-62 > 100 µM | SF-295 > 100 µM
